A word on the IC50: it is the concentration at which inhibition is half-maximal.

The structures appear in SMILES notation.

Assay [1] has as its target T1, INDY (Homo sapiens, UniProt Q86YT5). Kind of assay: 14C-citrate uptake in HepG2 cells endogenously expressing INDY (NaCT). The assay is classed as cell-based. The following applies: endogenous INDY. The method, then:
(§1) The compound was obtained by screening of a library containing more than 50,000 lead-like compounds and fragments. The library was tested using a functional citrate uptake assay with HEK293 cells overexpressing recombinant human INDY. The following hit confirmation was conducted in the same assay system. To confirm the activity of selected compounds on the target INDY another cell assay was conducted. In this assay system citrate uptake was measured using HepG2 cells which endogenously express INDY. Furthermore selectivity of selected compounds was tested for two other transporters in different assay systems. The first transporter was the glutamate transporter GLT-1 tested in a glutamate uptake assays using HEK293 cells overexpressing recombinant human GLT-1. The second transporter was the glucose transporter GLUT1 tested in a glucose uptake assay using Huh-7 cells which endogenously express GLUT1. Compounds were considered to be selective with an at least 5-fold higher activity for INDY than for the other two transporters.
(§2) Cells were maintained in cell medium using cell culture grade flasks (CellSTACK Corning, 500 cm2 dishes or T175 depending on cell number). The selection antibiotic and G418 (800 μg/ml) was added during cultivation but not for seeding into assay plates. For splitting, cells were washed with PBS (w/o Ca2+, Mg2+, phenol red) and detached with Trypsin/EDTA. Throughout cultivation cells were kept sub-confluent. Detached cells (50,000 cells/well) were seeded in 96-well plates (white, clear bottom from Corning #655098) and incubated over night before usage in the assay. The following media were used. For HEK293 cells expressing INDY MEM (PAA)+10% FCS+1×P/S+2 mM L-Gln; for HEK293 cells expressing GLT-1 DMEM (Gibco)+10% FCS+400 µg/ml G418; for Huh7 cells DMEM (Gibco)+10% FCS+2 mM L-Gin (+1×P/S); for HepG2 cells MEM (PAA, Cat # E15-024)+10% FCS+2 mM L-Gin+1×NEAA+1 mM Na-Pyruvat
(§3) The following assay buffers for the particular uptake reaction were used. Citrate uptake buffer: 120 mM NaCl, 5.4 mM KCl, 0.8 mM MgSO4, 5 mM glucose, 1.8 mM CaCl2, 25 mM Hepes, 25 mM MES, pH 6.5. Glutamate uptake buffer: HBSS, 1 mM CaCl2, 1 mM MgCl2, 20 mM Hepes pH 7.4. Glucose uptake buffer: 25 mM Hepes+25 mM MES pH 7.4, 120 mM NaCl, 5.4 mM KCl, 1.8 mM CaCl2, 0.8 mM MgSO4.
INDY mediated citrate uptake was also determined in HepG2 cells. To determine the uptake of ^14C labelled citrate into cells, HepG2 cells endogenously expressing human NaCT were used. (Gopal et al. 2007 Am J Physiol Gastrointest Liver Physiol 292).
HepG2 cells were seeded into white clear-bottom 96-well plates (50,000/well) coated with collagen and incubated at 37° C. for 16-24 hours. After that plates were washed once with assay buffer using automated washing/LS 405 Selectors, BioTek ending with a buffer volume of 40 μl. Then 5 μl of compound solution in assay buffer was added and incubated for 5 min at 37° C. in cell incubator, HERA cell Heraeus. Afterwards 10 μl of substrate 14C-citrate (10 nM) were added and incubated for another 90 min at 37° C. in cell incubator, HERAcell. Then plates were washed 3× with 200 μl buffer and […] cell lysis induced by adding 50 μl ice-cold NaOH (100 mM). Plates were incubated for 25 min at RT on a plate shaker and afterwards 200 μl scintillation fluid was added and incubated for 15 min on a plate shaker at RT and for another 15 min without shaking at RT. Plates were measured using a TopCount system. As a positive control 5 mM citrate was applied. It is possible to use this assay also in analogy in a 384-well plate format.

In assay [2] the target is T1, INDY. Kind of assay: 14C-citrate uptake in HEK293 cells overexpressing recombinant human INDY (NaCT). The assay is classed as cell-based. The arrangement: expressed in transfected cells; host or cells: HEK293. How it is done: as §1, §2, §3
INDY mediated citrate uptake was determined in HEK293 cells. To determine the uptake of ^14C labelled citrate into cells, HEK293 cells over-expressing human NaCT were used. Cloning of human NaCT was done in analogy as described in Birkenfeld et al. (Birkenfeld et al., 2011, Cell Metabolism 14, 184-195, 2011).
Human NaCT HEK293 cells were seeded into white clear-bottom 96-well plates (50,000/well) in the presence of 4 μg/ml Poly-D-Lysine and incubated at 37° C. for 16-24 hours. On the days of the assay the plates were washed once with assay buffer using automated washing/LS 405 Selectors, BioTek ending with a buffer volume of 40 μl. Then 5 μl of compound solution in assay buffer was added and incubated for 5-30 min at 37° C. in cell incubator, HERA cell Heraeus. Afterwards 10 μl of substrate 14C-citrate ([…]/[…] per well) were added and incubated for another 20-90 min at 37° C. in cell incubator, HERAcell. Then plates were washed twice with 200 μl ice-cold assay buffer and residual volume was discarded. For cell lysis 50 μl ice-cold NaOH (100 mM) was added and incubated for 15 minutes at RT on a plate shaker. Finally, 200 μl scintillation fluid (scintillator OptiPhase Supermix, Perkin Elmer) was added. After 15 min incubation at RT without shaking, plates were measured using a TopCount reader system (Perkin Elmer). As a positive control 10 mM citrate was applied. It is possible to use this assay also in analogy in a 384-well plate format.

T1 sequence (Q86YT5 whole entry, the tested form may be a part): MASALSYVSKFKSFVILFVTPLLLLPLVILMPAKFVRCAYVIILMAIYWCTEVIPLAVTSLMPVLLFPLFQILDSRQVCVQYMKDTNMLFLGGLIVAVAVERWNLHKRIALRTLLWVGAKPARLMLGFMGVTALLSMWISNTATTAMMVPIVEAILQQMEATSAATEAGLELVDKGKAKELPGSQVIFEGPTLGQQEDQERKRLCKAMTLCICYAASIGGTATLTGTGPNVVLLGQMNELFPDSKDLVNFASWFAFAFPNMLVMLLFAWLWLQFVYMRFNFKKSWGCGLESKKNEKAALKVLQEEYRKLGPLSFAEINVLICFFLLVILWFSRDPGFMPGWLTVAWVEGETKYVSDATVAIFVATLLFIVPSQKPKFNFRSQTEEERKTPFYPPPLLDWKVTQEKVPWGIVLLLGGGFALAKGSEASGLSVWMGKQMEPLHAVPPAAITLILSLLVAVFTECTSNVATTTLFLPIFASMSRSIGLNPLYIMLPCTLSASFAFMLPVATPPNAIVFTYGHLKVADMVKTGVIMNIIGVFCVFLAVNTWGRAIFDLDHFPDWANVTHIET

Take `O=C(NCc1ccccc1F)C1CCN(S(=O)(=O)C2=Cc3ccccc3OC2)CC1` [Example 9, 1-(2H-chromene-3-sulfonyl)-N-[(2-fluorophenyl)methyl]piperidine-4-carboxamide]: at INDY [1], the IC50 is greater than 50 µM.

Regarding `COC(=O)c1ccc(S(=O)(=O)N2CCC(C(=O)NCc3ccccc3F)CC2)cc1` [Example 89, methyl 4-[(4-{[(2-fluorophenyl)methyl]carbamoyl}piperidin-1-yl)sulfonyl]benzoate], the 50% inhibitory concentration (IC50) on INDY [2] is greater than 20 µM.

In the case of `O=S(=O)(/C=C/c1ccccc1)N1CCC(CNCc2ccccc2F)CC1` [Example 10, [(2-fluorophenyl)methyl]({1-[(E)-phenylethenesulfonyl]piperidin-4-yl}methyl)amine], the IC50 against INDY [1] was greater than 50 µM.

As to `O=C(NCc1ccccc1F)N1CCN(S(=O)(=O)/C=C/c2ccccc2)CC1` [Example 7, N-[(2-fluorophenyl)methyl]-4-[(E)-2-phenylethenesulfonyl]piperazine-1-carboxamide], the half-maximal inhibitory concentration (IC50) at INDY [1] is greater than 50 µM.

As for `N#Cc1ccccc1CNC(=O)C1CCN(S(=O)(=O)/C=C/c2ccccc2)CC1` [Example 53, N-[(2-cyanophenyl)methyl]-1-[(E)-2-phenylethenesulfonyl]piperidine-4-carboxamide], on INDY [2], the half-maximal inhibitory concentration (IC50) stood at 15.9 µM.

With `Cc1ccc(S(=O)(=O)N2CCC(C(=O)NCc3ccccn3)CC2)cc1Cl` [Example 122, 1-(3-chloro-4-methylbenzenesulfonyl)-N-[(pyridin-2-yl)methyl]piperidine-4-carboxamide], the half-maximal inhibitory concentration (IC50) at INDY [2] came out at 18.8 µM.

For `O=C(NCc1ccccc1N1CCOCC1)C1CCN(S(=O)(=O)/C=C/c2ccccc2)CC1` [Example 40, N-{[2-(morpholin-4-yl)phenyl]methyl}-1-[(E)-2-phenylethenesulfonyl]piperidine-4-carboxamide], the IC50 at INDY [2] is greater than 20 µM.

With `COc1ccc(CNC(=O)C2CCN(S(=O)(=O)/C=C/c3ccccc3)CC2)c(F)c1` [Example 48, N-[(2-fluoro-4-methoxyphenyl)methyl]-1-[(E)-2-phenylethenesulfonyl]piperidine-4-carboxamide], the IC50 on INDY [2] is greater than 20 µM.

With `O=C(NCc1ccccc1F)C1CCN(S(=O)(=O)c2ccc([N+](=O)[O-])cc2)CC1` [Example 17, N-[(2-fluorophenyl)methyl]-1-(4-nitrobenzenesulfonyl)piperidine-4-carboxamide], the half-maximal inhibitory concentration (IC50) at INDY [2] is greater than 20 µM.

As to `O=C(NCc1ccc(F)cc1)C1CCN(S(=O)(=O)/C=C/c2ccccc2)CC1` [Example 56, N-[(4-fluorophenyl)methyl]-1-[(E)-2-phenylethenesulfonyl]piperidine-4-carboxamide], the IC50 at INDY [2] is greater than 20 µM.

As to `O=C(NCc1ccc(CO)cc1)C1CCN(S(=O)(=O)c2ccc(C(F)(F)F)cc2)CC1` [Example 104, N-([4-(hydroxymethyl)phenyl]methyl)-1-[4-(trifluoromethyl)benzenesulfonyl]piperidine-4-carboxamide], the concentration for half-maximal inhibition (IC50) on INDY [2] is greater than 20 µM.

On to `O=C(NCc1ccccn1)C1CCN(S(=O)(=O)c2cccc([N+](=O)[O-])c2)CC1` [Example 76, 1-(3-nitrobenzenesulfonyl)-N-[(pyridin-2-yl)methyl]pipendine-4-carboxamide], for which, at INDY [2], the IC50 was greater than 20 µM.

In the case of `Cc1cc(S(=O)(=O)N2CCC(C(=O)NCc3ccccn3)CC2)ccc1Cl` [Example 121, 1-(4-chloro-3-methylbenzenesulfonyl)-N-[(pyridin-2-yl)methyl]piperidine-4-carboxamide], at INDY [2], the IC50 came to 18.8 µM.

With `COC(=O)c1cccc(S(=O)(=O)N2CCC(C(=O)NCc3ccccc3F)CC2)c1` [Example 88, methyl 3-[(4-{[(2-fluorophenyl)methyl]carbamoyl}piperidin-1-yl)sulfonyl]benzoate], the half-inhibitory concentration (IC50) at INDY [2] is greater than 20 µM.

For `CCN(CC)C(C)c1cccc(S(=O)(=O)N2CCC(C(=O)NCc3ccccc3F)CC2)c1` (stereo not shown) [Example 113, 1-{3-[1-(diethylamino)ethyl]benzenesulfonyl}-N-[(2-fluorophenyl)methyl]piperidine-4-carboxamide], the IC50 on INDY [2] was greater than 20 µM.

As for `CN(C)c1ccc(S(=O)(=O)N2CCC(C(=O)NCc3ccccc3F)CC2)cc1` [Example 65, 1-[4-(dimethylamino)benzenesulfonyl]-N-[(2-fluorophenyl)methyl]piperidine-4-carboxamide], on INDY [2], the IC50 was greater than 20 µM.

For the compound `COc1ccc(S(=O)(=O)N2CCC(C(=O)NCc3ccccn3)CC2)c(OC)c1` [Example 61, 1-(2,4-dimethoxybenzenesulfonyl)-N-[(pyridin-2-yl)methyl]piperidine-4-carboxamide], the 50% inhibitory concentration (IC50) on INDY [2] is greater than 20 µM.

As for `CC(=O)Nc1ccc(S(=O)(=O)N2CCC(C(=O)NCc3ccccc3F)CC2)cc1` [Example 20, 1-(4-acetamidobenzenesulfonyl)-N-[(2-fluorophenyl)methyl]piperidine-4-carboxamide], the IC50 at INDY [2] is greater than 20 µM.

Take `O=C(NCc1ccccn1)C1CCN(S(=O)(=O)c2ccc(-c3ccccc3)cc2)CC1` [Example 68, 1-{[1,1′-biphenyl]-4-sulfonyl}-N-[(pyridin-2-yl)methyl]pipendine-4-carboxamide]: at INDY [2], the IC50 was 19.7 µM.

Consider `O=Cc1ccc(S(=O)(=O)N2CCC(C(=O)NCc3ccccc3F)CC2)cc1` [Example 94, N-[(2-fluorophenyl)methyl]-1-(4-formylbenzenesulfonyl)piperidine-4-carboxamide], for which the half-maximal inhibitory concentration (IC50) at INDY [2] is greater than 20 µM.

In the case of `O=C(NCc1ccccc1C(F)(F)F)C1CCN(S(=O)(=O)/C=C/c2ccccc2)CC1` [Example 11, 1-[(E)-2-phenylethenesulfonyl]-N-{[2-(trifluoromethyl)phenyl]methyl}piperidine-4-carboxamide], the half-maximal inhibitory concentration (IC50) on INDY [2] was greater than 20 µM.

Take `CC(C)(C)c1ccccc1S(=O)(=O)N1CCC(C(=O)NCc2ccccc2F)CC1` [Example 42, 1-(2-tert-butylbenzenesulfonyl)-N-[(2-fluorophenyl)methyl]piperidine-4-carboxamide]: on INDY [2], the IC50 was greater than 20 µM.

With `CC(=O)c1cccc(S(=O)(=O)N2CCC(C(=O)NCc3ccccc3F)CC2)c1` [Example 106, 1-(3-acetylbenzenesulfonyl)-N-[(2-fluorophenyl)methyl]piperidine-4-carboxamide], the IC50 at INDY [2] came out at 11.1 µM.

On to `O=C(O)c1cccc(CNC(=O)C2CCN(S(=O)(=O)c3cc(Cl)cc(Cl)c3)CC2)c1` [Example 119, 3-({[1-(3,5-dichlorobenzenesulfonyl)piperidin-4-yl]formamido}methyl)benzoic acid], for which the IC50 at INDY [2] was greater than 20 µM.

For `O=C(NCc1ccccc1F)C1CCN(S(=O)(=O)c2ccc(F)cc2)CC1` [Example 45, 1-(4-fluorobenzenesulfonyl)-N-[(2-fluorophenyl)methyl]piperidine-4-carboxamide], the 50% inhibitory concentration (IC50) on INDY [2] stood at 11.8 µM.

Values taken from patent US20200087258A1, “INHIBITOR OF CITRATE TRANSPORTER AND THEIR USE IN THERAPY” (Eternygen GmbH, priority 2017, published 2020).
